In patent US20110039874A1, “MONOACYLGLYCEROL LIPASE INHIBITORS FOR MODULATION OF CANNABINOID ACTIVITY” (Northeastern University, priority 2007, published 2011) one finds melting point data, which are given here for 18 compounds.

Molecules are shown by their SMILES.

In turn, `Cc1nnc(C(=O)CCCCCCOc2ccc(OCc3ccccc3)cc2)o1` [Compound 65.2, 7-(4-Benzyloxy-phenoxy)-1-(5-methyl-1,3,4-oxadiazol-2-yl)-heptan-1-one] returned a melting point of 118 to 120 °C.
`O=S(=O)(F)CCCCCCCc1ccc(O)cc1` [Compound 14.1, 7-(4-Hydroxy-phenyl)-heptanesulfonyl fluoride] returned a melting point of 47 to 51 °C.
The result for `O=C(CCCCCCOc1ccc(OCc2ccccc2)cc1)C(F)(F)F` [Compound 23.4, 1,1,1-Trifluoro-8-[4-(Benzyloxy)phenoxy]-2-octanone] reads 82 to 83 °C.
To `O=C(CCCOc1ccccc1OCc1ccccc1)C(F)(F)F` [Compound 23.8, 1,1,1-Trifluoro-5-[2-(Benzyloxy)phenoxy]-2-pentanone] belongs 50 to 51 °C.
For the compound `Oc1cccc(OCCCC(O)(O)C(F)(F)F)c1` (hydrate or solvate) [Compound 24.5, 1,1,1-Trifluoro-2,2-dihydroxy-5-[3-(hydroxy)phenoxy]pentane], the melting point was 76 to 77 °C.
In the case of `O=C(CCCCCOc1ccc(OCc2ccccc2)cc1)C(F)(F)F` [Compound 23.3, 1,1,1-Trifluoro-7-[4-(Benzyloxy)phenoxy]-2-heptanone], the melting point fell in the range of 59 to 60 °C.
`COS(=O)(=O)CCCCCCCc1ccc(OCc2ccccc2)cc1` [Compound 18, 7-(4-Benzyloxy-phenyl)-heptane-1-sulfonic acid methyl ester]: the melting point was in the range of 57 to 59 °C.
Consider `O=C(CCCCOc1ccccc1O)C(F)(F)F` [Compound 24.9, 1,1,1-Trifluoro-6-[2-(hydroxy)phenoxy]-2-hexanone], for which the melting point lay within 51 to 52 °C.
On to `Cc1nnc(C(=O)CCCCCCOc2ccc(O)cc2)o1` [Compound 66, 7-(4-Hydroxy-phenoxy)-1-(5-methyl-1,3,4-oxadiazol-2-yl)-heptan-1-one], for which the melting point is 134 to 135 °C.
As to `O=C(CCCCOc1ccc(O)cc1)C(F)(F)F` [Compound 24.2, 1,1,1-Trifluoro-6-[4-(hydroxy)phenoxy]-2-hexanone], the melting point was in the range of 63 to 64 °C.
In turn, `O=S(=O)(F)CCCCCc1ccc(OCc2ccccc2)cc1` [Compound 13.4, 5-(4-Benzyloxy-phenyl)-pentanesulfonyl fluoride] came in with a melting point of 66 to 68 °C.
The compound `O=C(CCCOc1ccc(OCc2ccccc2)cc1)C(F)(F)F` [Compound 23.1, 1,1,1-Trifluoro-5-[4-(benzyloxy)phenoxy]-2-pentanone] gave a melting point of 59 to 61 °C.
As to `O=C(CCCCOc1ccccc1)C(F)(F)F` [Compound 23.12, 1,1,1-Trifluoro-6-phenoxy-2-hexanone], the melting point was 50 to 51 °C.
To `O=S(=O)(F)CCCCOc1ccccc1` [Compound 17, 4-Phenoxybutylsulfonyl fluoride] belongs 74 to 76 °C; to `O=C(CCCCOc1ccc(OCc2ccccc2)cc1)C(F)(F)F` [Compound 23.2, 1,1,1-Trifluoro-6-[4-(Benzyloxy)phenoxy]-2-hexanone], 95.5 to 96 °C.
As to `O=S(=O)(F)CCCCCCCc1ccc(OCc2ccccc2)cc1` [Compound 13.1, 7-(4-Benzyloxy-phenyl)-heptanesulfonyl fluoride], the melting point is 35 to 38 °C.
Turning to `O=C(CCCCCOc1ccccc1OCc1ccccc1)C(F)(F)F` [Compound 23.10, 1,1,1-Trifluoro-7-[2-(Benzyloxy)phenoxy]-2-heptanone], the melting point lay in the range of 31 to 32 °C.
`O=C(CCCCCCOc1ccc(O)cc1)C(F)(F)F` [Compound 24.4, 1,1,1-Trifluoro-8-[4-(hydroxy)phenoxy]-2-octanone] yielded a melting point of 61 to 62 °C.

As a reminder, the melting point is the temperature of the solid-liquid transition.
